Calls of active or inactive are those of the source. No cut-off for these calls is given here.
Key:
[1] = MRT(0 to t) in Sprague-Dawley rat plasma at 10 mg/kg, iv measured up to 48 hrs by LC-MS/MS analysis; assay type: ADME, organism-based
[2] = Mutagenicity in Escherichia coli WP2 uvrA measured at 1.5 to 1000 ug per well for 48 to 72 hrs in presence of S9 liver fraction by mini-Ames test; assay type: toxicity, subcellular; conditions: dose lower 1.5 µg, time lower 48 hrs, dose upper 1000 µg, time upper 72 hrs
[3] = Mutagenicity in Salmonella typhimurium TA98 measured at 1.5 to 1000 ug per well for 48 to 72 hrs by mini-Ames test; assay type: toxicity, Salmonella enterica subsp. enterica serovar Typhimurium; conditions: in vivo; dose lower 1.5 µg, time lower 48 hrs, dose upper 1000 µg, time upper 72 hrs
[4] = Cmax in Sprague-Dawley rat plasma at 10 mg/kg, iv measured up to 48 hrs by LC-MS/MS analysis; assay type: ADME, organism-based; parameters: dose 10 mg/kg, time < 48 hrs, route iv
[5] = Clearance in Sprague-Dawley rat plasma at 10 mg/kg, iv measured up to 48 hrs by LC-MS/MS analysis; assay type: ADME, organism-based
A549 [6] = test: Inhibition of colony formation in human A549 cells assessed as reduction of colony number at 1 uM measured after 4 days by crystal violet staining-based colony formation assay relative to control; assay type: functional; conditions: A549, 96 h, time 4 day
[7] = Volume of distribution in Sprague-Dawley rat plasma at 10 mg/kg, iv measured up to 48 hrs by LC-MS/MS analysis; assay type: ADME, organism-based
A549 [8] = test: Antitumor activity against human A549 cells xenografted in Balb/c nude mouse assessed as tumor growth inhibition at 150 mg/kg, po administered once daily 24 days relative to control; assay type: functional, organism-based; conditions: time 24.0 day
A549 [9] = test: Antiproliferative activity against human A549 cells assessed as reduction in cell viability incubated for 72 hrs by Celltiter-glo assay; assay type: functional, cell-based; conditions: A549, 72 h
[10] = Half life in Sprague-Dawley rat plasma at 10 mg/kg, iv measured up to 48 hrs by LC-MS/MS analysis; assay type: ADME, organism-based
[11] = Tmax in Sprague-Dawley rat plasma at 100 mg/kg, po measured up to 48 hrs by LC-MS/MS analysis; assay type: ADME, organism-based
[12] = Mutagenicity in Escherichia coli WP2 uvrA measured at 1.5 to 1000 ug per well for 48 to 72 hrs by mini-Ames test; assay type: toxicity; conditions: in vivo; dose lower 1.5 µg, time lower 48 hrs, dose upper 1000 µg, time upper 72 hrs
[13] = target: Voltage-gated inwardly rectifying potassium channel KCNH2 (Homo sapiens, UniProt Q12809); test: Inhibition of human ERG expressed in HEK293 cells at -80 mV holding potential by whole cell patch-clamp assay; assay type: toxicity, cell-based
Voltage-gated inwardly rectifying potassium channel KCNH2, sequence (Q12809 whole entry): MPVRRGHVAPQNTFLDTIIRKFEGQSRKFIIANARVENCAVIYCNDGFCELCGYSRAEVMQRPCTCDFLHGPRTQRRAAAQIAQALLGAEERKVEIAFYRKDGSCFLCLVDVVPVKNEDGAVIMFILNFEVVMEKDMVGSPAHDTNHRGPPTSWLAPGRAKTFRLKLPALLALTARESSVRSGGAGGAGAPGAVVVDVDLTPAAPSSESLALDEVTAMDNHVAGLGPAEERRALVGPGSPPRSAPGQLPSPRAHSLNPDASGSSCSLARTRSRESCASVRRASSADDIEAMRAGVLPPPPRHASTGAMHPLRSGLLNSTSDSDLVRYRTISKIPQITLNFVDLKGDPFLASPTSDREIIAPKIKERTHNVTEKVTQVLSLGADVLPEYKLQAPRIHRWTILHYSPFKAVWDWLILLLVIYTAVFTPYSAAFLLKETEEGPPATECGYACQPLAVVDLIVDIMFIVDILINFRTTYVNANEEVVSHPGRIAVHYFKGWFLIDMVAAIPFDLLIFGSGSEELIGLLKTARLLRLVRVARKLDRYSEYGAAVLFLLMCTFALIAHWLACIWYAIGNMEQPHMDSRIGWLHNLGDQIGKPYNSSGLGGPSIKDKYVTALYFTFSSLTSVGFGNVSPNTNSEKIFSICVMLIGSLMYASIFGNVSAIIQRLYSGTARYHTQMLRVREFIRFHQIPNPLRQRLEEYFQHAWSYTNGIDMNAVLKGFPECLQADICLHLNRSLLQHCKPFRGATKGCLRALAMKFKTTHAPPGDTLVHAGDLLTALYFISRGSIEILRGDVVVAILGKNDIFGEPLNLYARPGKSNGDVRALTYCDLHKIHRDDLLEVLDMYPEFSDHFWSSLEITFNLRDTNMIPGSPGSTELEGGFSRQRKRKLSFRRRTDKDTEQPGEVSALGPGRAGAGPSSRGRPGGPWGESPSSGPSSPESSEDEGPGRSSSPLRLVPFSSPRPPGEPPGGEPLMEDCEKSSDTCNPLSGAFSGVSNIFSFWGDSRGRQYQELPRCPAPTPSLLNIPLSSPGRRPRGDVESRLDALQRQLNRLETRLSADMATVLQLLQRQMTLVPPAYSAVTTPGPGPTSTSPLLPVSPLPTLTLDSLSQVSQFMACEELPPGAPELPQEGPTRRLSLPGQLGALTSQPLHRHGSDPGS

[14] = Mutagenicity in Salmonella typhimurium TA1535 measured at 1.5 to 1000 ug per well for 48 to 72 hrs in presence of S9 liver fraction by mini-Ames test; assay type: toxicity, subcellular, Salmonella enterica subsp. enterica serovar Typhimurium; conditions: dose lower 1.5 µg, time lower 48 hrs, dose upper 1000 µg, time upper 72 hrs
Homo sapiens = species on record: Homo sapiens; test: (§1) Inhibition of human recombinant GAC K320A mutant (73 to 598 residues ) expressed in Escherichia coli BL21 (DE3) cells incubated for 10 mins by fluorometric assay
[15] = as §1
[16] = MRT(0 to infinity) in Sprague-Dawley rat plasma at 10 mg/kg, iv measured up to 48 hrs by LC-MS/MS analysis; assay type: ADME, organism-based
[17] = Oral bioavailability in Sprague-Dawley rat plasma at 100 mg/kg measured up to 48 hrs by LC-MS/MS analysis; assay type: ADME, organism-based
[18] = Half life in Sprague-Dawley rat plasma at 100 mg/kg, po measured up to 48 hrs by LC-MS/MS analysis; assay type: ADME, organism-based
[19] = AUC(0 to infinity) in Sprague-Dawley rat plasma at 100 mg/kg, po measured up to 48 hrs by LC-MS/MS analysis; assay type: ADME, organism-based; parameters: dose 100 mg/kg, time < 48 hrs, route po
[20] = Mutagenicity in Salmonella typhimurium TA1537 measured at 1.5 to 1000 ug per well for 48 to 72 hrs in presence of S9 liver fraction by mini-Ames test; assay type: toxicity, subcellular, Salmonella enterica subsp. enterica serovar Typhimurium; conditions: dose lower 1.5 µg, time lower 48 hrs, dose upper 1000 µg, time upper 72 hrs
[21] = Cmax in Sprague-Dawley rat plasma at 100 mg/kg, po measured up to 48 hrs by LC-MS/MS analysis; assay type: ADME, organism-based; parameters: dose 100 mg/kg, time < 48 hrs, route po
A549 [22] = test: Inhibition of colony formation in human A549 cells assessed as reduction of colony number measured after 4 days by crystal violet staining-based colony formation assay; assay type: functional, cell-based; conditions: dose 10-1000 nM, time 4.0 day
[23] = Mutagenicity in Salmonella typhimurium TA1537 measured at 1.5 to 1000 ug per well for 48 to 72 hrs by mini-Ames test; assay type: toxicity, Salmonella enterica subsp. enterica serovar Typhimurium; conditions: in vivo; dose lower 1.5 µg, time lower 48 hrs, dose upper 1000 µg, time upper 72 hrs
[24] = Mutagenicity in Salmonella typhimurium TA100 measured at 1.5 to 1000 ug per well for 48 to 72 hrs by mini-Ames test; assay type: toxicity, Salmonella enterica subsp. enterica serovar Typhimurium; conditions: in vivo; dose lower 1.5 µg, time lower 48 hrs, dose upper 1000 µg, time upper 72 hrs
[25] = AUC(0 to t) in Sprague-Dawley rat plasma at 100 mg/kg, po measured up to 48 hrs by LC-MS/MS analysis; assay type: ADME, organism-based; parameters: dose 100 mg/kg, time < 48 hrs, route po
[26] = Mutagenicity in Salmonella typhimurium TA98 measured at 1.5 to 1000 ug per well for 48 to 72 hrs in presence of S9 liver fraction by mini-Ames test; assay type: toxicity, subcellular, Salmonella enterica subsp. enterica serovar Typhimurium; conditions: dose lower 1.5 µg, time lower 48 hrs, dose upper 1000 µg, time upper 72 hrs
[27] = AUC(0 to t) in Sprague-Dawley rat plasma at 10 mg/kg, iv measured up to 48 hrs by LC-MS/MS analysis; assay type: ADME, organism-based; parameters: dose 10 mg/kg, time < 48 hrs, route iv
[28] = target: Sodium channel protein type 5 subunit alpha (Homo sapiens, UniProt Q14524); test: Inhibition of human Nav1.5 channel stably expressed in CHO cells at -120 mV holding potential by whole cell patch-clamp assay; assay type: toxicity, cell-based
Sodium channel protein type 5 subunit alpha, sequence (Q14524 whole entry, canonical isoform): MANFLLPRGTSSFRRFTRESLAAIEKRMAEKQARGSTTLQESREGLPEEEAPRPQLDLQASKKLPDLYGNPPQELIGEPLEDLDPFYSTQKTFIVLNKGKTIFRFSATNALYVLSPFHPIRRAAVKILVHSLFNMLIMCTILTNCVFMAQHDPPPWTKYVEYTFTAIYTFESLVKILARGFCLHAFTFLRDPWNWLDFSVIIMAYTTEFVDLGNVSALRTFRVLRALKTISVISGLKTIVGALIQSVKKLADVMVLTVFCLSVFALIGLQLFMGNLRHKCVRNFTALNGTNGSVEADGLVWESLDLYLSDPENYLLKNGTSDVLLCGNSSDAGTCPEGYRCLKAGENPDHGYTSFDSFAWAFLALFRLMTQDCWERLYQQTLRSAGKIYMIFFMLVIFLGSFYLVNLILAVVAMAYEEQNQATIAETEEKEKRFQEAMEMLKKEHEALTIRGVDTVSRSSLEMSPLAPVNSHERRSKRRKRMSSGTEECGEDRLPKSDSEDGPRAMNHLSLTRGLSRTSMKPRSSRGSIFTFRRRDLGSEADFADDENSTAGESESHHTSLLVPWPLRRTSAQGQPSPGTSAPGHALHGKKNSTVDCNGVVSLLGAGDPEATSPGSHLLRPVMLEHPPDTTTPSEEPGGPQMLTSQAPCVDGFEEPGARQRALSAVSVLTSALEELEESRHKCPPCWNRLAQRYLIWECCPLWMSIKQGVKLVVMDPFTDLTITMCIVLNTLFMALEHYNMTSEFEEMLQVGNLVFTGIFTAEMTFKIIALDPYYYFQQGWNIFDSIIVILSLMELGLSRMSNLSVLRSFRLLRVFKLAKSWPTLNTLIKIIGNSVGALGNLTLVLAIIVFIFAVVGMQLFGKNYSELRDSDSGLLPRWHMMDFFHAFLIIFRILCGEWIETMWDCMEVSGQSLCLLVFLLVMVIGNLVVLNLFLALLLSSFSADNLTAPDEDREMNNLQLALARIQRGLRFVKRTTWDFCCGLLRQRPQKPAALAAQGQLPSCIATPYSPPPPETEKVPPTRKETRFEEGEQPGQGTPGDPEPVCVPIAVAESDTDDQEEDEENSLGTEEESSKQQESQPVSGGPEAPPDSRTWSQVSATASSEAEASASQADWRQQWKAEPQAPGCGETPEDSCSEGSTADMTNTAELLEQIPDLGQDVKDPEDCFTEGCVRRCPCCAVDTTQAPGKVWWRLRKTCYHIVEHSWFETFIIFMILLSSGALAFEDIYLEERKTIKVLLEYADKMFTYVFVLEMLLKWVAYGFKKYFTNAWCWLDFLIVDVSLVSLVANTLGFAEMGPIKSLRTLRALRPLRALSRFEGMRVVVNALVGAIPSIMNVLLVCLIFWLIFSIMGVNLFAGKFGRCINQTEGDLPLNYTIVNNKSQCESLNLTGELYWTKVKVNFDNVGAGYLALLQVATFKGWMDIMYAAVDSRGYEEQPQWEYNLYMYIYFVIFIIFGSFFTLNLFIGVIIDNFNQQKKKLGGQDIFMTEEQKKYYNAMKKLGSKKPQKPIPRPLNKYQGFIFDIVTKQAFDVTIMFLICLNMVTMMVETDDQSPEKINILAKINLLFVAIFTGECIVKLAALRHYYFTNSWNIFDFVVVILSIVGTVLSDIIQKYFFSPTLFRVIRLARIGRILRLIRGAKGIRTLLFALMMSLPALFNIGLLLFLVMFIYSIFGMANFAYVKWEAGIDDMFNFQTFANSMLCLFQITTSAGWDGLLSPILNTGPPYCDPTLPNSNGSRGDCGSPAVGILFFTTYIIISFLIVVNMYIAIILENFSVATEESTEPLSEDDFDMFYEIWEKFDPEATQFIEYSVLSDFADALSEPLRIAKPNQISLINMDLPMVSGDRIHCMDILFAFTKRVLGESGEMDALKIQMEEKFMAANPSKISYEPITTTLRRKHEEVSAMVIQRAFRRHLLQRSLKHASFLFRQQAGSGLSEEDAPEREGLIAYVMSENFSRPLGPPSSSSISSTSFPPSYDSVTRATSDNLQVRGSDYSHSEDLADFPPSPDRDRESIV

[29] = target: T1, Glutaminase kidney isoform, mitochondrial (Homo sapiens) (UniProt O94925); test: Inhibition of GAC (unknown origin)
T1 sequence (whole entry): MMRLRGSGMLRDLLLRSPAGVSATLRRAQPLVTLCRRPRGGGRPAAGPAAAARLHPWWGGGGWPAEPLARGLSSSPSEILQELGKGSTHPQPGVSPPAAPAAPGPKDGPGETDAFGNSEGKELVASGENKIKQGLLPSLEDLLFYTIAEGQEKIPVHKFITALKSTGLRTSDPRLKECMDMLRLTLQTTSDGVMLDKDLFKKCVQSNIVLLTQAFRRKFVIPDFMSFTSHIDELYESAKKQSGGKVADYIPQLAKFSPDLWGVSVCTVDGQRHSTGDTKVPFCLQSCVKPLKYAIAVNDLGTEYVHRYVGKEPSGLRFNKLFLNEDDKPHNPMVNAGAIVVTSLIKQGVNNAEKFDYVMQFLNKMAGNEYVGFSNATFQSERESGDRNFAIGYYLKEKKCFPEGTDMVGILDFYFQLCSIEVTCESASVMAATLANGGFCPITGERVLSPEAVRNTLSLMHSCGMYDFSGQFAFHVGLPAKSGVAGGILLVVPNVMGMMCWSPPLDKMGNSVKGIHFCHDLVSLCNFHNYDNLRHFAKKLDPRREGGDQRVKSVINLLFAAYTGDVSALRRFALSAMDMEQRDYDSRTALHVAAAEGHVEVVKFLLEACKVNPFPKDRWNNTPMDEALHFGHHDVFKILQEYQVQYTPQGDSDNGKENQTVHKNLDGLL

[30] = target: T1, Glutaminase kidney isoform, mitochondrial (Homo sapiens); test: Inhibition of human GAC in A549 cells assessed as reduction in glutamate level at 100 to 1000 nM incubated for 16 hrs by colorimetric assay; assay type: cell-based; conditions: dose 100-1000 nM

SMILES: O=C(Cc1cccc(Oc2ccccc2)c1)Nc1nnc(N[C@@H]2CCN(c3cccnn3)C2)s1
- MRT last at 48 h [1]: 1.52 h
- Activity [2]: Non-Toxic
- Activity [3]: Non-Toxic
- Cmax [4]: 6500 ng/mL
- clearance [5]: 36.4 mL/min/kg
- inhibition at 1 µM (A549 [6]): ~100%
- Vd [7]: 15.7 L/kg
- TGI (A549 [8]): Active
- IC50 (A549 [9]): 4.04 nM
- half-life [10]: 5.06 h
- Tmax [11]: 2 h
- Activity [12]: Non-Toxic
- IC50 [13]: 7530 nM
- Activity [14]: Non-Toxic
- INH (Homo sapiens): 107 nM
- EC50 [15]: 10.3 nM
- MRT inf [16]: 1.59 h
- bioavailability [17]: 5%
- half-life [18]: 2.02 h
- AUC(0-inf) [19]: 2330 ng·h/mL
- Activity [20]: Non-Toxic
- Cmax [21]: 487 ng/mL
- inhibition (A549 [22]): Dose-Dependent Effect
- Activity [23]: Non-Toxic
- Activity [24]: Non-Toxic
- AUC(0-t) at 48 h [25]: 2310 ng·h/mL
- Activity [26]: Non-Toxic
- AUC(0-t) at 48 h [27]: 4630 ng·h/mL
- INH [28]: > 30 µM
- INH [29]: 8.9 nM
- inhibition [30]: Active

Reference: ChEMBL document CHEMBL5370626, “Targeting the Subpocket Enables the Discovery of Thiadiazole-Pyridazine Derivatives as Glutaminase C Inhibitors” (ACS Med Chem Lett, 2023)
